Assay results as given in US5424326A, “Phenyl-1,2,5-oxadiazolecarboxamide-2-oxides, their preparation and their use” (Cassella Aktiengesellschaft, priority 1992, dated 1995).

These molecules were tested on pulmonary artery of the guinea-pig (assay: relaxation of potassium-depolarised pulmonary artery strips of the guinea-pig (CaCl2-induced contraction)). Details: 40 mmol/l potassium, 0.5 mmol/l CaCl2; cumulative addition; average value of 4 to 6 vessel strips; read-out: IC50 (concentration which inhibits the contraction by 50%).
Experimental: In this method, spiral strips of the pulmonary artery of the guinea-pig are depolarised with 40 mmol/l of potassium after equiliberation in calcium-free Tyrode solution. An addition of 0.5 mmol/l of CaCl2 then induces a contraction.
The relaxing action of the test substance is determined by cumulative addition in 1/2 log 10 graded concentrations.

Question: Which IC50 does the source give for “N-(3-Diethylaminopropyl)-3-phenyl-1,2,5-oxadiazole-4-carboxamide-2-oxide [Compound 6a]” here?
Answer: 400 nM

Question: With “N-Butyl-3-phenyl-1,2,5-oxadiazole-4-carboxamide-2-oxide [Compound 5a]” as the molecule, how does the IC50 read?
Answer: 700 nM

Question: “N-Methyl-3-(3,4-dimethoxyphenyl)-1,2,5-oxadiazole-4-carboxamide-2-oxide [Compound 4a]” was tested. Which IC50 did it give?
Answer: 5000 nM

Same assay, conditions: Cavia porcellus; 40 mmol/l potassium, 0.5 mmol/l CaCl2; cumulative addition; average value of 4 to 6 vessel strips; read-out: IC50 (concentration which inhibits the contraction by 50%)

Question: With `CC(C)N(CCNC(=O)c1no[n+]([O-])c1-c1ccccc1)C(C)C` [Compound 12b] as the molecule, how does the IC50 read?
Answer: 2000 nM

Question: `O=[N+]([O-])OC1COC2C(O)COC12` (stereo not shown) [Isosorbide-5-mononitrate, reference compound] was tested. Which IC50 did it give?
Answer: > 100000 nM

Question: How did the IC50 turn out when `O=C(NCc1ccncc1)c1no[n+]([O-])c1-c1ccccc1` [Compound 14b] was run?
Answer: 1000 nM

Question: With `O=C(NCc1cccnc1)c1no[n+]([O-])c1-c1ccccc1` [Compound 7b] as the molecule, how does the IC50 read?
Answer: 2000 nM

Question: With `O=C(NCc1cccnc1)c1c(-c2ccccc2)no[n+]1[O-]` [Compound 7a] as the molecule, how does the IC50 read?
Answer: 300 nM

Question: With `CNC(=O)c1c(-c2ccccc2)no[n+]1[O-]` [Compound 1a, N-Methyl-4-phenyl-1,2,5-oxadiazole-3-carboxamide-2-oxide] as the molecule, how does the IC50 read?
Answer: 1000 nM

Question: For `CCOC(=O)[N-]c1cn(N2CCOCC2)n[o+]1` [Molsidomine, reference compound], which IC50 is on record?
Answer: 300000 nM

Question: How did the IC50 turn out when `COc1ccc(-c2no[n+]([O-])c2C(=O)NCCN(C(C)C)C(C)C)cc1OC` [Compound 13a] was run?
Answer: 300 nM

Question: `O=C(NCc1ccncc1)c1c(-c2ccccc2)no[n+]1[O-]` [Compound 14a] was tested. Which IC50 did it give?
Answer: 500 nM

Question: `NC(=O)CNC(=O)c1c(-c2ccccc2)no[n+]1[O-]` [Compound 10a] was tested. Which IC50 did it give?
Answer: 1000 nM
